Experimental data as given in PubChem BioAssay AID2060908 (Molecular Pharmacology Branch, DTP, NCI, 2025).

System: 186277-243-T-J2-PDC complex spheroids, viability
Assay: Anticancer human tumor 186277-243-T-J2-PDC patient-derived colon adenocarcinoma cell line growth inhibition [RAS]
Conditions: for IC50: curve of first compound; for viability, T/C: stronger effect = lower value; active = viability on the fitted dose curve at most 10% of control; inactive = the rest
Outline: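 Tumour cells grown as complex spheroids with HUVEC endothelial cells and mesenchymal stem cells, treated with RAS pathway inhibitor combinations. Each agent spans half-log steps from near clinical Cmax, or 10 microM where Cmax is unknown.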

[1] = second compound 0.000949 µM, first compound 0.0316 µM
[2] = second compound 0.000949 µM, first compound 0.1 µM
[3] = second compound 0.000949 µM, first compound 0.316 µM
[4] = second compound 0.000949 µM, first compound 1 µM
[5] = second compound 0.000949 µM, first compound 3.16 µM
[6] = second compound 0.000949 µM, first compound 10 µM
[7] = second compound 0.003 µM, first compound 0.0316 µM
[8] = second compound 0.003 µM, first compound 0.1 µM
[9] = second compound 0.003 µM, first compound 0.316 µM
[10] = second compound 0.003 µM, first compound 1 µM
[11] = second compound 0.003 µM, first compound 3.16 µM
[12] = second compound 0.003 µM, first compound 10 µM
[13] = second compound 0.00949 µM, first compound 0.0316 µM
[14] = second compound 0.00949 µM, first compound 0.1 µM
[15] = second compound 0.00949 µM, first compound 0.316 µM
[16] = second compound 0.00949 µM, first compound 1 µM
[17] = second compound 0.00949 µM, first compound 3.16 µM
[18] = second compound 0.00949 µM, first compound 10 µM
[19] = second compound 0.03 µM, first compound 0.0316 µM
[20] = second compound 0.03 µM, first compound 0.1 µM
[21] = second compound 0.03 µM, first compound 0.316 µM
[22] = second compound 0.03 µM, first compound 1 µM
[23] = second compound 0.03 µM, first compound 3.16 µM
[24] = second compound 0.03 µM, first compound 10 µM
[25] = second compound 0.0949 µM, first compound 0.0316 µM
[26] = second compound 0.0949 µM, first compound 0.1 µM
[27] = second compound 0.0949 µM, first compound 0.316 µM
[28] = second compound 0.0949 µM, first compound 1 µM
[29] = second compound 0.0949 µM, first compound 3.16 µM
[30] = second compound 0.0949 µM, first compound 10 µM
[31] = second compound 0.3 µM, first compound 0.0316 µM
[32] = second compound 0.3 µM, first compound 0.1 µM
[33] = second compound 0.3 µM, first compound 0.316 µM
[34] = second compound 0.3 µM, first compound 1 µM
[35] = second compound 0.3 µM, first compound 3.16 µM
[36] = second compound 0.3 µM, first compound 10 µM
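Note: spheroids exposed to compounds for 7 days before viability read.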

CC(C)NCC(C(=O)N1CCN(c2ncnc3c2C(C)CC3O)CC1)c1ccc(Cl)cc1 (stereo unspecified) + CCn1c(-c2cc(N3CCN(C)CC3)cnc2C(C)OC)c2c3cc(ccc31)-c1csc(n1)CC(NC(=O)C1CC1C)C(=O)N1CCCC(N1)C(=O)OCC(C)(C)C2
active: viability, T/C [12] 7.85% | viability, T/C [16] 11.4% | viability, T/C [17] 4.9% | viability, T/C [18] 1.96% | viability, T/C [21] 7.36% | viability, T/C [22] 3.74% | viability, T/C [23] 1.65% | viability, T/C [24] 0.66% | viability, T/C [25] 6.83% | viability, T/C [26] 6.82% | viability, T/C [27] 4.35% | viability, T/C [28] 2.2% | viability, T/C [29] 1.09% | viability, T/C [30] 0.38% | viability, T/C [31] 6.18% | viability, T/C [32] 5.27% | viability, T/C [33] 3.57% | viability, T/C [34] 1.82% | viability, T/C [35] 0.88% | viability, T/C [36] 0.37%
inactive: viability, T/C [1] 111% | viability, T/C [2] 101% | viability, T/C [3] 74.8% | viability, T/C [4] 42.8% | viability, T/C [5] 34.8% | viability, T/C [6] 20.4% | viability, T/C [7] 98.6% | viability, T/C [8] 81.6% | viability, T/C [9] 58.8% | viability, T/C [10] 33.8% | viability, T/C [11] 16.1% | viability, T/C [13] 51.6% | viability, T/C [14] 51% | viability, T/C [15] 28% | viability, T/C [19] 13.1% | viability, T/C [20] 15.3%
69.2 nM: IC50 (second compound 0.00949 µM)
467 nM: IC50 (second compound 0.003 µM)
< 31.6 nM: IC50 (second compound 0.03 µM) | IC50 (second compound 0.0949 µM) | IC50 (second compound 0.3 µM)
841 nM: IC50 (second compound 0.000949 µM)

CC(C)n1nc(-c2ccc3oc(N)nc3c2)c2c(N)ncnc21 + CCn1c(-c2cc(N3CCN(C)CC3)cnc2C(C)OC)c2c3cc(ccc31)-c1csc(n1)CC(NC(=O)C1CC1C)C(=O)N1CCCC(N1)C(=O)OCC(C)(C)C2
inactive: viability, T/C (second compound 0.000949 µM, first compound 0.000316 µM) 104% | viability, T/C (second compound 0.000949 µM, first compound 0.001 µM) 109% | viability, T/C (second compound 0.000949 µM, first compound 0.00316 µM) 87.9% | viability, T/C (second compound 0.000949 µM, first compound 0.01 µM) 69.8% | viability, T/C [1] 62.2% | viability, T/C [2] 34.8% | viability, T/C (second compound 0.003 µM, first compound 0.000316 µM) 106% | viability, T/C (second compound 0.003 µM, first compound 0.001 µM) 104% | viability, T/C (second compound 0.003 µM, first compound 0.00316 µM) 88.3% | viability, T/C (second compound 0.003 µM, first compound 0.01 µM) 72.9% | viability, T/C [7] 46.7% | viability, T/C [8] 20.1% | viability, T/C (second compound 0.00949 µM, first compound 0.000316 µM) 49.4% | viability, T/C (second compound 0.00949 µM, first compound 0.001 µM) 47.4% | viability, T/C (second compound 0.00949 µM, first compound 0.00316 µM) 37.7% | viability, T/C (second compound 0.00949 µM, first compound 0.01 µM) 30.8% | viability, T/C [13] 12.7% | viability, T/C (second compound 0.03 µM, first compound 0.000316 µM) 14.8% | viability, T/C (second compound 0.03 µM, first compound 0.001 µM) 12.5%
< 0.316 nM: IC50 (second compound 0.00949 µM) | IC50 (second compound 0.03 µM) | IC50 (second compound 0.0949 µM) | IC50 (second compound 0.3 µM)
27.5 nM: IC50 (second compound 0.003 µM)
active: viability, T/C [14] 5.22% | viability, T/C (second compound 0.03 µM, first compound 0.00316 µM) 9.71% | viability, T/C (second compound 0.03 µM, first compound 0.01 µM) 6.52% | viability, T/C [19] 4.01% | viability, T/C [20] 2.6% | viability, T/C (second compound 0.0949 µM, first compound 0.000316 µM) 7.46% | viability, T/C (second compound 0.0949 µM, first compound 0.001 µM) 6.37% | viability, T/C (second compound 0.0949 µM, first compound 0.00316 µM) 5.35% | viability, T/C (second compound 0.0949 µM, first compound 0.01 µM) 3.33% | viability, T/C [25] 2.32% | viability, T/C [26] 1.41% | viability, T/C (second compound 0.3 µM, first compound 0.000316 µM) 5.75% | viability, T/C (second compound 0.3 µM, first compound 0.001 µM) 5.69% | viability, T/C (second compound 0.3 µM, first compound 0.00316 µM) 4.23% | viability, T/C (second compound 0.3 µM, first compound 0.01 µM) 2.81% | viability, T/C [31] 2.02% | viability, T/C [32] 1.43%
46.6 nM: IC50 (second compound 0.000949 µM)

CC(Nc1ccc2c(c1)OCCn1cc(N3C(=O)OCC3C(F)F)nc1-2)C(N)=O (stereo unspecified) + CCn1c(-c2cc(N3CCN(C)CC3)cnc2C(C)OC)c2c3cc(ccc31)-c1csc(n1)CC(NC(=O)C1CC1C)C(=O)N1CCCC(N1)C(=O)OCC(C)(C)C2
< 31.6 nM: IC50 (second compound 0.00949 µM) | IC50 (second compound 0.03 µM) | IC50 (second compound 0.0949 µM) | IC50 (second compound 0.3 µM)
inactive: viability, T/C [1] 97.7% | viability, T/C [2] 86.3% | viability, T/C [3] 48.7% | viability, T/C [4] 27.3% | viability, T/C [5] 14.1% | viability, T/C [7] 81.8% | viability, T/C [8] 46.6% | viability, T/C [9] 16.8% | viability, T/C [13] 28% | viability, T/C [14] 14.8%
88.5 nM: IC50 (second compound 0.003 µM)
347 nM: IC50 (second compound 0.000949 µM)
active: viability, T/C [6] 7.59% | viability, T/C [10] 8.63% | viability, T/C [11] 3.59% | viability, T/C [12] 2.34% | viability, T/C [15] 4.68% | viability, T/C [16] 2.07% | viability, T/C [17] 1.18% | viability, T/C [18] 0.72% | viability, T/C [19] 8.29% | viability, T/C [20] 4.59% | viability, T/C [21] 1.59% | viability, T/C [22] 0.91% | viability, T/C [23] 0.49% | viability, T/C [24] 0.23% | viability, T/C [25] 4.51% | viability, T/C [26] 2.41% | viability, T/C [27] 1.01% | viability, T/C [28] 0.59% | viability, T/C [29] 0.45% | viability, T/C [30] 0.24% | viability, T/C [31] 3.65% | viability, T/C [32] 2.08% | viability, T/C [33] 0.89% | viability, T/C [34] 0.55% | viability, T/C [35] 0.35% | viability, T/C [36] 0.29%
